Drawing on US3931314A, “Benzophenone derivatives and process for their production” (Cassella Farbwerke Mainkur Aktiengesellschaft, priority 1972, dated 1976), this text covers responders and LD50 for 26 compounds.

Where only a bound is given, the exact number is not on record here.

One series concerns central nervous system. Description: climbing test on albino mice, sedative action on the central nervous system. The class given is in vivo. Conditions: Mus musculus, po, read-out: Sedative action % (percentage of animals which no longer take up the climbing work); for responders at 8 mg/kg: dose 8 mg/kg p.o.; for responders at 10 mg/kg: dose 10 mg/kg p.o. The method, then:
The pharmacological investigation of the sedative action on the central nervous system was carried out using the climbing tests on albino mice described by P. K. KNEIP: Arch. int. pharmacodyn 126, 238 (1960) and R. DOMENJOZ and W. THEOBALD: Arch. int. pharmacodyn 120, 450 (1959).
In the table which follows, the results of the pharmacological investigations carried out are summarised. In the last table under the heading "Sedative action %" there is given the percentage of the experimental animals which no longer take up the normally readily assumed climbing work.

A short description of series [1]: LD50 (mouse), acute toxicity. Conditions: in vivo.

Take `CCOC(=O)CCNCC(=O)Nc1ccc(Cl)cc1C(=O)c1ccccc1Cl` [2-(5-ethoxycarbonyl-3-aza-pentanamido)-2',5-dichlor-benzophenone]: the responders at 8 mg/kg in the series on central nervous system worked out at 70%.

As to `CN(CCC#N)CC(=O)N(C)c1ccc([N+](=O)[O-])cc1C(=O)c1ccccc1` [2-(5-Cyano-N,3-dimethyl-3-aza-pentanamido)-5-nitro-benzophenone], the responders at 10 mg/kg with central nervous system came to 50%. Moreover, the LD50 (in general, the dose expected to kill half of the subjects tested) in series [1] (po) is over 1000 mg/kg.

With `CCOC(=O)CCCNCC(=O)Nc1ccc([N+](=O)[O-])cc1C(=O)c1ccccc1` [2-(6-ethoxycarbonyl-3-aza-hexanamido)-5-nitro-benzophenone], the responders at 8 mg/kg with central nervous system amounted to 50%.

As for `CC(CC#N)N(C)CC(=O)N(C)c1ccc(Cl)cc1C(=O)c1ccccc1` (stereo not shown) [2-(5-Cyano-N,3,4-trimethyl-3-aza-pentanamido)-5-chlor-benzophenone], the responders at 9 mg/kg in the series with central nervous system (dose 9 mg/kg p.o.) was found to be 50%. Moreover, in series [1] (ip), the LD50 came out at 320 mg/kg.

`CC(CC#N)NCC(=O)Nc1ccccc1C(=O)c1ccccc1` (stereo not shown) [2-(5-Cyano-4-methyl-3-aza-pentanamido)-benzophenone]: the responders at 10 mg/kg in the series on central nervous system is 50%. Moreover, in series [1] (po), the LD50 is over 1000 mg/kg.

Turning to `CC(C#N)CN(C)CC(=O)N(C)c1ccc([N+](=O)[O-])cc1C(=O)c1ccccc1` (stereo not shown) [2-(5-Cyano-N,3-dimethyl-3-aza-hexanamido)-5-nitro-benzophenone], the responders at 10 mg/kg in the series with central nervous system turned out to be 60%. The LD50 in series [1] (ip) came to 480 mg/kg; in series [1] (po), 1100 mg/kg.

For `CN(CCCC#N)CC(=O)Nc1ccc(Cl)cc1C(=O)c1ccccc1` [2-(6-Cyano-3-methyl-3-aza-hexanamido)-5-chlor-benzophenone], the responders at 8 mg/kg in the series with central nervous system was found to be 60%.

As for `CN(CCC#N)CC(=O)N(C)c1ccc(Cl)cc1C(=O)c1ccccc1` [2-(5-Cyano-N,3-dimethyl-3-aza-pentanamido)-5-chlor-benzophenone], the responders at 8 mg/kg with central nervous system was 50%. The LD50 in series [1] (ip) is 240 mg/kg.

For the compound `CC(C#N)CNCC(=O)Nc1ccc(Cl)cc1C(=O)c1ccccc1` (stereo not shown) [2-(5-Cyano-3-aza-hexanamid0)-5-chlor-benzophenone], in the series on central nervous system, the responders at 8 mg/kg was 50%. Further, the 50% lethal dose (LD50) in series [1] (ip) worked out at 600 mg/kg.

For the compound `CN(CCC(=O)O)CC(=O)Nc1ccc(Cl)cc1C(=O)c1ccccc1` [2-(5-Carboxy-3-methyl-3-aza-pentanamido)-5-chlor-benzophenone], the responders at 8 mg/kg in the series with central nervous system was found to be 90%. In series [1] (ip), the LD50 was found to be 450 mg/kg.

Take `CCOC(=O)CCNCC(=O)N(C)c1ccc(C)cc1C(=O)c1ccccc1` [2-(5-ethoxycarbonyl-N-methyl-3-aza-pentanamido)-5-methyl-benzophenone]: the responders at 8 mg/kg in the series with central nervous system worked out at 50%.

Regarding `Cc1ccc(N(C)C(=O)CNCCC#N)c(C(=O)c2ccccc2)c1` [2-(5-Cyano-N-methyl-3-aza-pentanamido)-5-methyl-benzophenone], in the series with central nervous system, the responders at 8 mg/kg was determined as 50%.

As to `CCCC(C)(COC(N)=O)COC(N)=O` [Meprobamate, reference compound], the responders at 70 mg/kg in the series on central nervous system (dose 70 mg/kg p.o., comparative preparation) was 50%. The compound also yielded an LD50 in series [1] (ip) of 620 mg/kg.

On to `C=CCN(CCC#N)CC(=O)Nc1ccc(Cl)cc1C(=O)c1ccccc1Cl` [2-(5-Cyano-3-allyl-3-aza-pentanamido)-2'-5-dichlor-benzophenone], for which, in the series on central nervous system, the responders at 8 mg/kg was 60%. In addition, the median lethal dose (LD50) in series [1] (ip) turned out to be 630 mg/kg.

As to `CCOC(=O)CCCNCC(=O)N(C)c1ccc([N+](=O)[O-])cc1C(=O)c1ccccc1` [2-(6-ethoxycarbonyl-N-methyl-3-aza-hexanamido)-5-nitro-benzophenone], the responders at 8 mg/kg in the series with central nervous system came out at 60%. The compound further showed an LD50 in series [1] (ip) of 650 mg/kg.

With `CCOC(=O)CCNCC(=O)N(C)c1ccc(C(F)(F)F)cc1C(=O)c1ccccc1` [2-(5-ethoxycarbonyl-N-methyl-3-aza-pentanamido)-5-trifluormethyl-benzophenone], the responders at 8 mg/kg with central nervous system came to 60%. Further, the 50% lethal dose (LD50) in series [1] (ip) was 400 mg/kg.

Take `COC(=O)CNCC(=O)N(C)c1ccc(Cl)cc1C(=O)c1ccccc1` [2-(4-Methoxycarbonyl-N-methyl-3-aza-butanamido)-5-chlor-benzophenone]: the responders at 10 mg/kg in the series on central nervous system amounted to 50%. In series [1] (po), this compound had an LD50 of 950 mg/kg.

For the compound `Cc1ccc(N(C)C(=O)CNC(C)CC#N)c(C(=O)c2ccccc2)c1` (stereo not shown), in the series on central nervous system, the responders at 8 mg/kg worked out at 70%. The LD50 in series [1] (ip) is 300 mg/kg.

For `COc1ccc(N(C)C(=O)CNCCC#N)c(C(=O)c2ccccc2)c1` [2-(5-Cyano-N-methyl-3-aza-pentanamido)-5-methoxy-benzophenone], in the series with central nervous system, the responders at 8 mg/kg amounted to 50%.

Take `CC(CC#N)NCC(=O)N(C)c1ccccc1C(=O)c1ccccc1` (stereo not shown) [2-(5-Cyano-N,4-dimethyl-3-aza-pentanamido)-benzophenone]: the responders at 8 mg/kg in the series with central nervous system was determined as 70%. Besides, the LD50 in series [1] (ip) is 320 mg/kg.

Take `CN(C(=O)CNCC#N)c1ccc(Cl)cc1C(=O)c1ccccc1` [2-(4-Cyano-N-methyl-3-aza-butanamido)-5-chlor-benzophenone]: the responders at 8 mg/kg in the series on central nervous system came out at 60%. The LD50 in series [1] (ip) worked out at 170 mg/kg.

Take `CC(CC#N)NCC(=O)N(C)c1ccc(Cl)cc1C(=O)c1ccccc1` (stereo not shown) [2-(5-Cyano-N,4-dimethyl-3-aza-pentanamido)-5-chlor-benzophenone]: the responders at 8 mg/kg with central nervous system is 50%. In series [1] (ip), the LD50 was determined as 315 mg/kg.

As for `CCCCN(CCC#N)CC(=O)N(C)c1ccc([N+](=O)[O-])cc1C(=O)c1ccccc1` [2-(5-Cyano-N-methyl-3-n-butyl-3-aza-pentanamido)-5-nitro-benzophenone], in the series with central nervous system, the responders at 8 mg/kg stood at 50%. This compound also showed an LD50 in series [1] (ip) of 680 mg/kg.

Turning to `CCCCN(CCC#N)CC(=O)N(C)c1ccc(Cl)cc1C(=O)c1ccccc1` [2-(5-Cyano-N-methyl-3-n-butyl-3-aza-pentanamido)-5-chlor-benzophenone], the responders at 8 mg/kg in the series with central nervous system was 80%. This compound registered an LD50 in series [1] (ip) of 360 mg/kg.

In the case of `COc1ccc(N(C)C(=O)CNC(C)CC#N)c(C(=O)c2ccccc2)c1` (stereo not shown) [2-(5-Cyano-N,4-dimethyl-3-aza-pentanamido)-5-methoxy-benzophenone], in the series on central nervous system, the responders at 8 mg/kg worked out at 60%. The compound further registered an LD50 in series [1] (ip) of 250 mg/kg.

Turning to `CCOC(=O)CCNCC(=O)N(C)c1ccc(SC)cc1C(=O)c1ccccc1` [2-(5-ethoxycarbonyl-N-methyl-3-aza-pentanamido)-5-methylmerkapto-benzophenone], the responders at 8 mg/kg with central nervous system was found to be 60%.
